Data published in patent US8168592B2 (Amgen Inc., priority 2005, dated 2012).
Square brackets hold non-standard residues; d marks the D form. Peptide text beside a SMILES is read from it. Bip = N[C@@H](Cc1ccc(-c2ccccc2)cc1)C(=O)O; Oic = O=C(O)[C@@H]1C[C@@H]2CCCC[C@@H]2N1; Phe(4-I) = N[C@@H](Cc1ccc(I)cc1)C(=O)O; 1Nal = N[C@@H](Cc1cccc2ccccc12)C(=O)O; 2Nal = N[C@@H](Cc1ccc2ccccc2c1)C(=O)O; hArg = N=C(N)NCCCC[C@H](N)C(=O)O; Tic = O=C(O)[C@@H]1Cc2ccccc2CN1; Cit = NC(=O)NCCC[C@H](N)C(=O)O

These molecules were tested against T1, CGRP1 receptor (Homo sapiens, UniProt O60894+Q16602) (assay: in vitro CGRP1 receptor mediated cAMP assay in SK-N-MC cells). Settings: Table 2A; read-out: IC50.
T1 construct: SK-N-MC cells express CRLR and RAMP1, which form CGRP1 receptor; endogenous in cells; host or cells: SK-N-MC human neuroblastoma cells
Assay type: cell-based
Description: The in vitro cAMP assay employed a human neuroblastoma-derived cell line (SK-N-MC). SK-N-MC cells express CRLR and RAMP1, which form CGRP1 receptor. CGRP1 receptor is a G-protein coupled receptor linked to the stimulatory G-protein, Gs. […] Briefly, two days before the assay, the cells were plated in 96-well plates in growth medium. On the day of the assay cells were rinsed with PBS followed by the addition of 60 μl of plasma free medium for 15 minutes at room temperature. […] The medium was then removed and the cells were lysed with 100 μl lysis buffer for 30 minutes at 37° C. for 30 minutes. Using a Tropix ELISA kit (Applied Biosystems, Foster City, Calif.), a cAMP-AP conjugate was diluted (1:100) and added (30 μl) to each well of a 96-well ELISA plate. An aliquot of the lysis buffer from the cell plate was then added to the ELISA plate followed by an aliquot of the cAMP antibody. This mixture was incubated for 1 hour at room temperature with gentle shaking. The ELISA plate was then washed 6× with wash buffer followed by the additions of a substrate enhancer. This mixture was incubated for 30 minutes at room temperature and then read on a MicroBeta Jet or EnVision plate reader. The results were analyzed using Prism (GraphPad).

T1 sequence (Q16602 23-461): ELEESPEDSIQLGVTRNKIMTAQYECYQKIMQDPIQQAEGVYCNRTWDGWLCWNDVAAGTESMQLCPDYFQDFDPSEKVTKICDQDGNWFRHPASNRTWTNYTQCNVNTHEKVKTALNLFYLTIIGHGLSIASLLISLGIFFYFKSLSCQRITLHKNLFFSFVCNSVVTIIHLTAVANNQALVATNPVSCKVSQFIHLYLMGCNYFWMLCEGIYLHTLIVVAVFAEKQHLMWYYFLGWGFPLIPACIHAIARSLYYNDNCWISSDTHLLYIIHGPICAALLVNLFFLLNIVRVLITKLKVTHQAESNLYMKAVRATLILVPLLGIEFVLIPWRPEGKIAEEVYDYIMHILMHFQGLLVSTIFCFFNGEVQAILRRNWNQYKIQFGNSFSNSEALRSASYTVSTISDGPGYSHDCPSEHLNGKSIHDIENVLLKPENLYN
T1 sequence (O60894 27-148): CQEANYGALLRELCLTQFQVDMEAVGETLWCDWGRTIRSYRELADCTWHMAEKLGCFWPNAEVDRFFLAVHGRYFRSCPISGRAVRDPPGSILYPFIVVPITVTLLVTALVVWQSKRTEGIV

Molecule | IC50 [nM]
CC(=O)N[C@@H](CCCCN)C(=O)N[C@@H](Cc1c[nH]c2ccccc12)C(=O)N[C@H](C(=O)N[C@H](C(=O)N[C@@H](Cc1c[nH]cn1)C(=O)N[C@@H](CCCNC(N)=O)C(=O)N[C@@H](CC(C)C)C(=O)N[C@@H](C)C(=O)NCC(=O)N[C@@H](CC(C)C)C(=O)N[C@@H](CC(C)C)C(=O)N[C@@H](CO)C(=O)N[C@@H](CCCNC(N)=O)C(=O)N[C@@H](CO)C(=O)NCC(=O)NCC(=O)N[C@H](C(=O)N[C@H](C(=O)N[C@@H](CCCNC(=N)N)C(=O)N[C@@H](CCCCN)C(=O)N[C@@H](CC(N)=O)C(=O)N[C@@H](Cc1ccccc1)C(=O)N[C@H](C(=O)N1CCC[C@H]1C(=O)N[C@H](C(=O)N[C@@H](CC(=O)O)C(=O)N[C@H](C(=O)NCC(=O)N1CCC[C@H]1C(=O)N[C@@H](CCCCN)C(=O)N[C@@H](C)C(=O)N[C@@H](Cc1ccccc1)C(N)=O)C(C)C)[C@@H](C)O)C(C)C)C(C)C)C(C)C)[C@@H](C)O)C(C)C [compound 128] (Ac-KWVTH[Cit]LAGLLS[Cit]SGGVVRKNFVPTDVGPKAF-NH2) | 13
CC(=O)N[C@@H](Cc1c[nH]c2ccccc12)C(=O)N[C@H](C(=O)N[C@H](C(=O)N[C@@H](Cc1cnc[nH]1)C(=O)N[C@@H](CCCNC(N)=O)C(=O)N[C@@H](CC(C)C)C(=O)N[C@@H](C)C(=O)NCC(=O)N[C@@H](CC(C)C)C(=O)N[C@@H](CC(C)C)C(=O)N[C@@H](CO)C(=O)N[C@@H](CCCNC(N)=O)C(=O)N[C@@H](CO)C(=O)NCC(=O)NCC(=O)N[C@H](C(=O)N[C@H](C(=O)N[C@@H](CCCCN=C(N)N)C(=O)N[C@@H](CCCCN)C(=O)N[C@@H](CC(N)=O)C(=O)N[C@@H](Cc1ccccc1)C(=O)N[C@H](C(=O)N1CCC[C@H]1C(=O)N[C@H](C(=O)N[C@@H](CC(=O)O)C(=O)N[C@H](C(=O)NCC(=O)N1CCC[C@H]1C(=O)N1Cc2ccccc2C[C@H]1C(=O)N[C@@H](C)C(=O)N[C@@H](Cc1ccccc1)C(N)=O)C(C)C)[C@@H](C)O)C(C)C)C(C)C)C(C)C)[C@@H](C)O)C(C)C [compound 131] (Ac-WVTH[Cit]LAGLLS[Cit]SGGVV[hArg]KNFVPTDVGP[Tic]AF-NH2) | 89.9
CC(=O)N[C@@H](Cc1c[nH]c2ccccc12)C(=O)N[C@H](C(=O)N[C@H](C(=O)N[C@@H](Cc1c[nH]cn1)C(=O)N[C@@H](CCCNC(N)=O)C(=O)N[C@@H](CC(C)C)C(=O)N[C@@H](C)C(=O)NCC(=O)N[C@@H](CC(C)C)C(=O)N[C@@H](CC(C)C)C(=O)N[C@@H](CO)C(=O)N[C@@H](CCCNC(N)=O)C(=O)N[C@@H](CO)C(=O)NCC(=O)NCC(=O)N[C@H](C(=O)N[C@H](C(=O)N[C@@H](CCCCNC(=N)N)C(=O)N[C@@H](CCCCN)C(=O)N[C@@H](CC(N)=O)C(=O)N[C@@H](Cc1ccccc1)C(=O)N[C@H](C(=O)N1[C@H](C(=O)N[C@H](C(=O)N[C@@H](CC(=O)O)C(=O)N[C@H](C(=O)NCC(=O)N2[C@H](C(=O)N[C@@H](Cc3ccccc3)C(=O)N[C@@H](C)C(=O)N[C@@H](Cc3ccc4ccccc4c3)C(N)=O)C[C@@H]3CCCC[C@@H]32)C(C)C)[C@@H](C)O)C[C@@H]2CCCC[C@@H]21)C(C)C)C(C)C)C(C)C)[C@@H](C)O)C(C)C [compound 132] (Ac-WVTH[Cit]LAGLLS[Cit]SGGVV[hArg]KNFV[Oic]TDVG[Oic]FA[2Nal]-NH2) | 2.57
CC(=O)N[C@@H](Cc1c[nH]c2ccccc12)C(=O)N[C@H](C(=O)N[C@H](C(=O)N[C@@H](Cc1c[nH]cn1)C(=O)N[C@@H](CCCNC(N)=O)C(=O)N[C@@H](CC(C)C)C(=O)N[C@@H](C)C(=O)NCC(=O)N[C@@H](CC(C)C)C(=O)N[C@@H](CC(C)C)C(=O)N[C@@H](CO)C(=O)N[C@@H](CCCNC(N)=O)C(=O)N[C@@H](CO)C(=O)NCC(=O)NCC(=O)N[C@H](C(=O)N[C@H](C(=O)N[C@@H](CCCCNC(=N)N)C(=O)N[C@@H](CCCCN)C(=O)N[C@@H](CC(N)=O)C(=O)N[C@@H](Cc1ccccc1)C(=O)N[C@H](C(=O)N1[C@H](C(=O)N[C@H](C(=O)N[C@@H](CC(=O)O)C(=O)N[C@H](C(=O)NCC(=O)N2CCC[C@H]2C(=O)N[C@@H](Cc2cccc3ccccc23)C(=O)N[C@@H](C)C(=O)N[C@@H](Cc2ccc3ccccc3c2)C(N)=O)C(C)C)[C@@H](C)O)C[C@@H]2CCCC[C@@H]21)C(C)C)C(C)C)C(C)C)[C@@H](C)O)C(C)C [compound 133] (Ac-WVTH[Cit]LAGLLS[Cit]SGGVV[hArg]KNFV[Oic]TDVGP[1Nal]A[2Nal]-NH2) | 2.73

Other lines, results leading:

IC50 [nM] | Molecule
3.85 | CC(=O)N[C@@H](Cc1c[nH]c2ccccc12)C(=O)N[C@H](C(=O)N[C@H](C(=O)N[C@@H](Cc1c[nH]cn1)C(=O)N[C@@H](CCCNC(N)=O)C(=O)N[C@@H](CC(C)C)C(=O)N[C@@H](C)C(=O)NCC(=O)N[C@@H](CC(C)C)C(=O)N[C@@H](CC(C)C)C(=O)N[C@@H](CO)C(=O)N[C@@H](CCCNC(N)=O)C(=O)N[C@@H](CO)C(=O)NCC(=O)NCC(=O)N[C@H](C(=O)N[C@H](C(=O)N[C@@H](CCCCNC(=N)N)C(=O)N[C@@H](CCCCN)C(=O)N[C@@H](CC(N)=O)C(=O)N[C@@H](Cc1ccccc1)C(=O)N[C@H](C(=O)N1[C@H](C(=O)N[C@H](C(=O)N[C@@H](CC(=O)O)C(=O)N[C@H](C(=O)NCC(=O)N2CCC[C@H]2C(=O)N[C@@H](Cc2ccc(-c3ccccc3)cc2)C(=O)N[C@@H](C)C(=O)N[C@@H](Cc2ccccc2)C(N)=O)C(C)C)[C@@H](C)O)C[C@@H]2CCCC[C@@H]21)C(C)C)C(C)C)C(C)C)[C@@H](C)O)C(C)C [compound 134] (Ac-WVTH[Cit]LAGLLS[Cit]SGGVV[hArg]KNFV[Oic]TDVGP[Bip]AF-NH2)
3.22 | CC(=O)N[C@@H](Cc1c[nH]c2ccccc12)C(=O)N[C@H](C(=O)N[C@H](C(=O)N[C@@H](Cc1c[nH]cn1)C(=O)N[C@@H](CCCNC(N)=O)C(=O)N[C@@H](CC(C)C)C(=O)N[C@@H](C)C(=O)NCC(=O)N[C@@H](CC(C)C)C(=O)N[C@@H](CC(C)C)C(=O)N[C@@H](CO)C(=O)N[C@@H](CCCNC(N)=O)C(=O)N[C@@H](CO)C(=O)NCC(=O)NCC(=O)N[C@H](C(=O)N[C@H](C(=O)N[C@@H](CCCCNC(=N)N)C(=O)N[C@@H](CCCCN)C(=O)N[C@@H](CC(N)=O)C(=O)N[C@@H](Cc1ccccc1)C(=O)N[C@H](C(=O)N1[C@H](C(=O)N[C@H](C(=O)N[C@@H](CC(=O)O)C(=O)N[C@H](C(=O)NCC(=O)N2CCC[C@H]2C(=O)N[C@@H](Cc2ccccc2)C(=O)N[C@@H](C)C(=O)N[C@@H](Cc2ccc3ccccc3c2)C(N)=O)C(C)C)[C@@H](C)O)C[C@@H]2CCCC[C@@H]21)C(C)C)C(C)C)C(C)C)[C@@H](C)O)C(C)C [compound 135] (Ac-WVTH[Cit]LAGLLS[Cit]SGGVV[hArg]KNFV[Oic]TDVGPFA[2Nal]-NH2)
2.34 | CC(=O)N[C@@H](Cc1c[nH]c2ccccc12)C(=O)N[C@H](C(=O)N[C@H](C(=O)N[C@@H](Cc1c[nH]cn1)C(=O)N[C@@H](CCCNC(N)=O)C(=O)N[C@@H](CC(C)C)C(=O)N[C@@H](C)C(=O)NCC(=O)N[C@@H](CC(C)C)C(=O)N[C@@H](CC(C)C)C(=O)N[C@@H](CO)C(=O)N[C@@H](CCCNC(N)=O)C(=O)N[C@@H](CO)C(=O)NCC(=O)NCC(=O)N[C@H](C(=O)N[C@H](C(=O)N[C@@H](CCCCNC(=N)N)C(=O)N[C@@H](CCCCN)C(=O)N[C@@H](CC(N)=O)C(=O)N[C@@H](Cc1ccc(I)cc1)C(=O)N[C@H](C(=O)N1[C@H](C(=O)N[C@H](C(=O)N[C@@H](CC(=O)O)C(=O)N[C@H](C(=O)NCC(=O)N2CCC[C@H]2C(=O)N[C@@H](Cc2ccc(I)cc2)C(=O)N[C@@H](C)C(=O)N[C@@H](Cc2ccccc2)C(N)=O)C(C)C)[C@@H](C)O)C[C@@H]2CCCC[C@@H]21)C(C)C)C(C)C)C(C)C)[C@@H](C)O)C(C)C [compound 136] (Ac-WVTH[Cit]LAGLLS[Cit]SGGVV[hArg]KN[Phe(4-I)]V[Oic]TDVGP[Phe(4-I)]AF-NH2)

Same assay, conditions: Table 2D; read-out: IC50

IC50 [nM] | Molecule
4.09 | 766 (Ac-WVTHRLAGLLSRSGGVVRC(20 kDa MeO‑PEG)NFVPTDVGPFAF-NH2) [compound 766]
1.33 | 805 (Ac-WVTHRLAGLLSRSGGVVRC(20 kDa MeO‑PEG)NFVPTDVGPFAF-NH2) [compound 805]

Same assay, conditions: Table 3; unconjugated CGRP peptide analogs; n = 2-4; read-out: IC50

IC50 [nM] | Molecule
0.64 | CC(C)C[C@H](NC(=O)CNC(=O)[C@H](C)NC(=O)[C@H](CC(C)C)NC(=O)[C@H](CCCNC(=N)N)NC(=O)[C@H](Cc1cnc[nH]1)NC(=O)[C@@H](NC(=O)[C@@H](NC(=O)[C@@H](N)Cc1c[nH]c2ccccc12)C(C)C)[C@@H](C)O)C(=O)N[C@@H](CC(C)C)C(=O)N[C@@H](CO)C(=O)N[C@@H](CCCNC(=N)N)C(=O)N[C@@H](CO)C(=O)NCC(=O)NCC(=O)N[C@H](C(=O)N[C@H](C(=O)N[C@@H](CCCCN)C(=O)N[C@@H](CC(N)=O)C(=O)N[C@@H](CC(N)=O)C(=O)N[C@@H](Cc1ccccc1)C(=O)N[C@H](C(=O)N1CCC[C@H]1C(=O)N[C@H](C(=O)N[C@@H](CC(N)=O)C(=O)N[C@H](C(=O)NCC(=O)N[C@@H](CO)C(=O)N[C@@H](CCCCN)C(=O)N[C@@H](C)C(=O)N[C@@H](Cc1ccccc1)C(N)=O)C(C)C)[C@@H](C)O)C(C)C)C(C)C)C(C)C [compound 4]
